Test results as given in patent US11149040B2, “Fused triazole agonists of the APJ receptor” (AMGEN INC., priority 2017, dated 2021).

Target: human APJ receptor (Homo sapiens (Human), UniProt P35414)
Test: [35S]GTPγS binding assay on membranes from CHO cells stably expressing human APJ receptor
Type: biochemical
Details: read-out: Activity hAPJ SPA EC50 IP
Outline: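 Membranes from CHO cells stably expressing FLAG-tagged human APJ; assay buffer GDP, MgCl2 and NaCl levels optimised beforehand. Incubation 90 min at RT, imager read-out. EC50 from non-linear regression on means of several independent experiments.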

Sequence of human APJ receptor (P35414 whole entry): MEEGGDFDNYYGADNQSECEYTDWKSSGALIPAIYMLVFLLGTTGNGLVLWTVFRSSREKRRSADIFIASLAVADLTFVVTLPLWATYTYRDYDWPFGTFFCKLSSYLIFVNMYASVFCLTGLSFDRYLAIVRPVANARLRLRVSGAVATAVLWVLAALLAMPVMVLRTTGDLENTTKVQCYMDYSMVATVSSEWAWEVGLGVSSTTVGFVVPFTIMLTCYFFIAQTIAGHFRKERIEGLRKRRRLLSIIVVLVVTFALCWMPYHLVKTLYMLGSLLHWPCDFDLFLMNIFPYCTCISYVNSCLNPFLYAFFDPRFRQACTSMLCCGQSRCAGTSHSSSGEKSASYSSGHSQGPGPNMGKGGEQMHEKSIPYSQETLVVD

**Q.** For `COC[C@@H]1COc2ncccc2-c2nnc(NS(=O)(=O)[C@@H](C)[C@@H](OC(C)C)c3ncc(Cl)cn3)n21` (single isomer, unassigned) [Example 45.0, (1S,2S)-1-(5-chloro-2-pyrimidinyl)-N-((5R)-5-(methoxymethyl)-5,6-dihydropyrido[3,2-f][1,2,4]triazolo[4,3-d][1,4]oxazepin-3-yl)-1-(2-propanyloxy)-2-propanesulfonamide or (1S,2S)-1-(5-chloro-2-pyrimidinyl)-N-((5S)-5-(methoxymethyl)-5,6-dihydropyrido[3,2-f][1,2,4]triazolo[4,3-d][1,4]oxazepin-3-yl)-1-(2-propanyloxy)-2-propanesulfonamide], which EC50 is on record?
**A.** 160 nM

**Q.** Which EC50 does the source give for `COc1ccc2c(n1)-c1nnc(NS(=O)(=O)[C@@H](C)[C@@H](OC(C)C)c3ncc(C)cn3)n1[C@H](CO)CO2` (single isomer, unassigned) [Example 18.0, (1S,2S)-N-((R)-5-(hydroxymethyl)-10-methoxy-5,6-dihydropyrido[2,3-f][1,2,4]triazolo[4,3-d][1,4]oxazepin-3-yl)-1-isopropoxy-1-(5-methylpyrimidin-2-yl)propane-2-sulfonamide or (1S,2S)-N-((S)-5-(hydroxymethyl)-10-methoxy-5,6-dihydropyrido[2,3-f][1,2,4]traizolo[4,3-d][1,4]oxazepin-3-yl)-1-isopropoxy-1-(5-methylpyrimidin-2-yl)propane-2-sulfonamide] here?
**A.** 640 nM

**Q.** Which EC50 does the source give for `COc1ccc2c(n1)-c1nnc(NS(=O)(=O)[C@@H](C)[C@@H](OC(C)C)c3ncc(C)cn3)n1[C@H](CO)CO2` (single isomer, unassigned) [Example 19.0, (1S,2S)-N-((R)-5-(hydroxymethyl)-10-methoxy-5,6-dihydropyrido[2,3-f][1,2,4]triazolo[4,3-d][1,4]oxazepin-3-yl)-1-isopropoxy-1-(5-methylpyrimidin-2-yl)propane-2-sulfonamide or (1S,2S)-N-((S)-5-(hydroxymethyl)-10-methoxy-5,6-dihydropyrido[2,3-f][1,2,4]triazolo[4,3-d][1,4]oxazepin-3-yl)-1-isopropoxy-1-(5-methylpyrimidin-2-yl)propane-2-sulfonamide] here?
**A.** 990 nM

**Q.** With `COC[C@@H]1COc2cccnc2-c2nnc(NS(=O)(=O)[C@@H](C)[C@@H](OC(C)C)c3ncc(C)cn3)n21` (single isomer, unassigned) [Example 70.0, (1S,2S)-N-((5R)-5-(methoxymethyl)-5,6-dihydropyrido[2,3-f][1,2,4]triazolo[4,3-d][1,4]oxazepin-3-yl)-1-(5-methyl-2-pyrimidinyl)-1-(2-propanyloxy)-2-propanesulfonamide or (1S,2S)-N-((5S)-5-(methoxymethyl)-5,6-dihydropyrido[2,3-f][1,2,4]triazolo[4,3-d][1,4]oxazepin-3-yl)-1-(5-methyl-2-pyrimidinyl)-1-(2-propanyloxy)-2-propanesulfonamide] as the compound, how does the EC50 read?
**A.** 1210 nM

**Q.** Which EC50 does the source give for `COC[C@@H]1COc2ncccc2-c2nnc(NS(=O)(=O)[C@@H](C)[C@@H](OC(C)C)c3ncc(Cl)cn3)n21` (single isomer, unassigned) [Example 44.0, (1S,2S)-1-(5-chloro-2-pyrimidinyl)-N-((5R)-5-(methoxymethyl)-5,6-dihydropyrido[3,2-f][1,2,4]triazolo[4,3-d][1,4]oxazepin-3-yl)-1-(2-propanyloxy)-2-propanesulfonamide or (1S,2S)-1-(5-chloro-2-pyrimidinyl)-N-((5S)-5-(methoxymethyl)-5,6-dihydropyrido[3,2-f][1,2,4]triazolo[4,3-d][1,4]oxazepin-3-yl)-1-(2-propanyloxy)-2-propanesulfonamide] here?
**A.** 15 nM

**Q.** With `COC[C@@H]1COc2ccccc2-c2nnc(NS(=O)(=O)[C@@H](C)[C@H](C)c3ncc(OC)cn3)n21` (single isomer, unassigned) [Example 1.0, (2S,3R)-N-((5R)-5-(methoxymethyl)-5,6-dihydro[1,2,4]triazolo[4,3-d][1,4]benzoxazepin-3-yl)-3-(5-methoxy-2-pyrimidinyl)-2-butanesulfonamide or (2S,3R)-N-((5S)-5-(methoxymethyl)-5,6-dihydro[1,2,4]triazolo[4,3-d][1,4]benzoxazepin-3-yl)-3-(5-methoxy-2-pyrimidinyl)-2-butanesulfonamide] as the compound, how does the EC50 read?
**A.** 120 nM

**Q.** Which EC50 does the source give for `Cc1cnc([C@H](OC(C)C)[C@H](C)S(=O)(=O)Nc2nnc3n2C(CO)COc2ccc(C(F)(F)F)cc2-3)nc1` (single isomer, unassigned) [Example 157.0, (1S,2S)-N-((R)-5-(hydroxymethyl)-10-(trifluoromethyl)-5,6-dihydrobenzo[f][1,2,4]triazolo[4,3-d][1,4]oxazepin-3-yl)-1-isopropoxy-1-(5-methylpyrimidin-2-yl)propane-2-sulfonamide or (1S,2S)-N-((S)-5-(hydroxymethyl)-10-(trifluoromethyl)-5,6-dihydrobenzo[f][1,2,4]triazolo[4,3-d][1,4]oxazepin-3-yl)-1-isopropoxy-1-(5-methylpyrimidin-2-yl)propane-2-sulfonamide] here?
**A.** > 12500 nM

**Q.** For `COC[C@@H]1COc2cc(F)c(F)cc2-c2nnc(NS(=O)(=O)[C@@H](C)[C@@H](OC(C)C)c3ncc(C)cn3)n21` (mixture of isomers) [Example 16.0, (1S,2S)-N-((5R)-9,10-difluoro-5-(methoxymethyl)-5,6-dihydro[1,2,4]triazolo[4,3-d][1,4]benzoxazepin-3-yl)-1-(5-methyl-2-pyrimidinyl)-1-(2-propanyloxy)-2-propanesulfonamide and (1S,2S)-N-((5S)-9,10-difluoro-5-(methoxymethyl)-5,6-dihydro[1,2,4]triazolo[4,3-d][1,4]benzoxazepin-3-yl)-1-(5-methyl-2-pyrimidinyl)-1-(2-propanyloxy)-2-propanesulfonamide], which EC50 is on record?
**A.** 1700 nM

**Q.** For `COC[C@@H]1COc2ncccc2-c2nnc(NS(=O)(=O)[C@@H](C)[C@@H](OC(C)C)c3ncc(C)cn3)n21` (single isomer, unassigned) [Example 41.0, (1S,2S)-N-((5R)-5-(methoxymethyl)-5,6-dihydropyrido[3,2-f][1,2,4]triazolo[4,3-d][1,4]oxazepin-3-yl)-1-(5-methyl-2-pyrimidinyl)-1-(2-propanyloxy)-2-propanesulfonamide or (1S,2S)-N-((5S)-5-(methoxymethyl)-5,6-dihydropyrido[3,2-f][1,2,4]triazolo[4,3-d][1,4]oxazepin-3-yl)-1-(5-methyl-2-pyrimidinyl)-1-(2-propanyloxy)-2-propanesulfonamide], which EC50 is on record?
**A.** 44 nM

**Q.** Which EC50 does the source give for `COC[C@@H]1COc2ccccc2-c2nnc(NS(=O)(=O)[C@@H](C)[C@@H](OC(C)C)c3ncc(C)cn3)n21` (single isomer, unassigned) [Example 5.0, (1S,2S)-N-((5R)-5-(methoxymethyl)-5,6-dihydro[1,2,4]triazolo[4,3-d][1,4]benzoxazepin-3-yl)-1-(5-methyl-2-pyrimidinyl)-1-(2-propanyloxy)-2-propanesulfonamide or (1S,2S)-N-((5S)-5-(methoxymethyl)-5,6-dihydro[1,2,4]triazolo[4,3-d][1,4]benzoxazepin-3-yl)-1-(5-methyl-2-pyrimidinyl)-1-(2-propanyloxy)-2-propanesulfonamide] here?
**A.** 130 nM
